In ChEMBL document CHEMBL1772979, “SAR studies on a series of N-benzyl-4-heteroaryl-1-(phenylsulfonyl)piperazine-2-carboxamides: potent inhibitors of the polymerase enzyme (NS5B) of the hepatitis C virus” (Bioorg Med Chem Lett, 2011):

Assays:
[1] = system: Hepatitis C virus; experiment: Inhibition of Hepatitis C virus subtype 1b wild-type NS5B expressed in Escherichia coli BL21(DE3) assessed as decrease in [3H]-UTP incorporation using polyA template/biotin-labeled dT primer by SPA method
[2] = system: Hepatitis C virus; experiment: Antiviral activity against Hepatitis C virus expressing NS5B Y452H mutant by cell based replicon assay; format: functional, organism-based, Hepacivirus hominis
[3] = system: Hepatitis C virus; experiment: Antiviral activity against Hepatitis C virus subtype 1b by cell based replicon assay; format: functional, organism-based, Hepacivirus hominis, genotype 1b
[4] = system: Hepatitis C virus; experiment: Antiviral activity against Hepatitis C virus subtype 1a by cell based replicon assay; format: functional, organism-based, Hepacivirus hominis
[5] = Inhibition of Hepatitis C virus subtype 1a wild-type NS5B expressed in Escherichia coli BL21(DE3) assessed as decrease in [3H]-UTP incorporation using polyA template/biotin-labeled dT primer by SPA method
[6] = Hepatitis C virus, genotype 1b, read-out: EC50
[7] = Hepatitis C virus, subtype 1a, read-out: EC50

SMILES	EC50 [3, 6] [nM]	EC50 [4, 7] [µM]	further results
CC[C@H](C)NC(=O)c1ccc(N2CCN(S(=O)(=O)c3ccc(OC(F)(F)F)cc3)[C@@H](C(=O)NCc3ccc(OC(F)(F)F)cc3)C2)nn1	–	–	IC50 [1]: 13 nM; EC50 [2]: 400 nM
O=C(O)c1cnc(N2CCN(S(=O)(=O)c3ccc(OC(F)(F)F)cc3)C(C(=O)NCc3ccc(OC(F)(F)F)cc3)C2)cn1 (racemic)	–	–	EC50 [3]: Not Active; EC50 [4]: Not Active
CCc1ccc(S(=O)(=O)N2CCN(c3cc(OC)nc(OC)n3)CC2C(=O)NCc2ccccc2Cl)cc1 (racemic)	3700	> 50	–
CCC(C)(C)NC(=O)c1ccc(N2CCN(S(=O)(=O)c3ccc(OC(F)(F)F)cc3)C(C(=O)NCc3ccc(OC(F)(F)F)cc3)C2)nn1 (racemic)	43	0.46	–
COc1ccc(S(=O)(=O)N2CCN(c3cc(OC)nc(OC)n3)CC2C(=O)NCc2ccc(OC(F)(F)F)cc2)cc1 (racemic)	5900	64	–
CNC(=O)c1ccc(N2CCN(S(=O)(=O)c3ccc(OC(F)(F)F)cc3)[C@@H](C(=O)NCc3ccc(OC(F)(F)F)cc3)C2)nn1	7	0.22	–
COc1cc(N2CCN(S(=O)(=O)c3ccccc3F)C(C(=O)NCc3ccc(OC(F)(F)F)cc3)C2)nc(OC)n1 (racemic)	–	–	EC50 [3]: Not Active; EC50 [4]: Not Active
CCc1ccc(S(=O)(=O)N2CCN(c3cc(OC)nc(OC)n3)CC2C(=O)NCc2ccc(Cl)cc2)cc1 (racemic)	2100	30.8	–
CCc1ccc(S(=O)(=O)N2CCN(c3cc(OC)nc(OC)n3)C[C@@H]2C(=O)NCc2ccc(OC)cc2)cc1	900	6.2	–
CCc1ccc(S(=O)(=O)N2CCN(c3cc(OC)nc(OC)n3)CC2C(=O)NCc2ccc(OC)cc2)cc1 (racemic)	2200	23	IC50 [5]: 12.5 µM; IC50 [1]: 300 nM
COc1cc(N2CCN(S(=O)(=O)c3cccc(C)c3)C(C(=O)NCc3ccc(OC(F)(F)F)cc3)C2)nc(OC)n1 (racemic)	1400	41	–
CCc1ccc(S(=O)(=O)N2CCN(c3cc(OC)nc(OC)n3)CC2C(=O)NCc2ccc(OC)c(OC)c2)cc1 (racemic)	900	14.6	–
CCc1ccc(S(=O)(=O)N2CCN(c3cc(OC)nc(OC)n3)CC2C(=O)NCc2c(C)nn(-c3ccccc3)c2C)cc1 (racemic)	2100	20.8	–
CNC(=O)c1ccc(N2CCN(S(=O)(=O)c3ccc(OC(F)(F)F)cc3)C(C(=O)NCc3ccc(OC(F)(F)F)cc3)C2)nn1 (racemic)	20	0.33	–
CCc1ccc(S(=O)(=O)N2CCN(c3cc(OC)nc(OC)n3)CC2C(=O)NCc2ccc(-c3cccs3)cc2)cc1 (racemic)	1200	47	–
CCc1ccc(S(=O)(=O)N2CCN(c3cc(OC)nc(OC)n3)C[C@H]2C(=O)NCc2ccc(OC)cc2)cc1	10100	14.1	–
O=C(O)c1ccc(N2CCN(S(=O)(=O)c3ccc(OC(F)(F)F)cc3)C(C(=O)NCc3ccc(OC(F)(F)F)cc3)C2)nn1 (racemic)	–	–	EC50 [3]: Not Active; EC50 [4]: Not Active
COc1cc(N2CCN(S(=O)(=O)c3ccc(OC(F)(F)F)cc3)C(C(=O)NCc3ccc(OC(F)(F)F)cc3)C2)nc(OC)n1 (racemic)	700	8.1	–
COc1cc(N2CCN(S(=O)(=O)c3ccc(C(F)(F)F)cc3)C(C(=O)NCc3ccc(OC(F)(F)F)cc3)C2)nc(OC)n1 (racemic)	1200	13	–

SMILES	EC50 [3, 6] [nM]	EC50 [4, 7] [µM]	further results
COc1cc(N2CCN(S(=O)(=O)c3cccc(OC(F)(F)F)c3)C(C(=O)NCc3ccc(OC(F)(F)F)cc3)C2)nc(OC)n1 (racemic)	5300	58	–
COc1cc(N2CCN(S(=O)(=O)c3cccc(-c4ccc(F)cc4)c3)C(C(=O)NCc3ccc(OC(F)(F)F)cc3)C2)nc(OC)n1 (racemic)	–	–	EC50 [3]: Not Active; EC50 [4]: Not Active
COc1cc(N2CCN(S(=O)(=O)c3ccccc3)C(C(=O)NCc3ccc(OC(F)(F)F)cc3)C2)nc(OC)n1 (racemic)	20300	–	EC50 [4]: Not Active
COC(=O)c1cnc(N2CCN(S(=O)(=O)c3ccc(OC(F)(F)F)cc3)C(C(=O)NCc3ccc(OC(F)(F)F)cc3)C2)cn1 (racemic)	140	1.6	–
CCc1ccc(S(=O)(=O)N2CCN(c3cc(OC)nc(OC)n3)CC2C(=O)NCc2ccc(Cl)cc2Cl)cc1 (racemic)	2400	> 50	–
CC(C)NC(=O)c1ccc(N2CCN(S(=O)(=O)c3ccc(OC(F)(F)F)cc3)[C@@H](C(=O)NCc3ccc(OC(F)(F)F)cc3)C2)nn1	8	0.139	–
CCc1ccc(S(=O)(=O)N2CCN(c3cc(OC)nc(OC)n3)CC2C(=O)N(C)Cc2ccccc2)cc1 (racemic)	> 50000	> 50	–
CCc1ccc(S(=O)(=O)N2CCN(c3cc(OC)nc(OC)n3)CC2C(=O)NCc2ccc(C)cc2)cc1 (racemic)	1700	20.5	–
COc1cc(N2CCN(S(=O)(=O)c3cccc(C(F)(F)F)c3)C(C(=O)NCc3ccc(OC(F)(F)F)cc3)C2)nc(OC)n1 (racemic)	6200	53	–
COc1cc(N2CCN(S(=O)(=O)c3ccc(F)cc3)C(C(=O)NCc3ccc(OC(F)(F)F)cc3)C2)nc(OC)n1 (racemic)	8100	–	EC50 [4]: Not Active
COc1cc(N2CCN(S(=O)(=O)c3ccc(-c4ccccc4)cc3)C(C(=O)NCc3ccc(OC(F)(F)F)cc3)C2)nc(OC)n1 (racemic)	2400	56	–
CCc1ccc(S(=O)(=O)N2CCN(c3cc(OC)nc(OC)n3)CC2C(=O)NCC2CC2)cc1 (racemic)	–	–	EC50 [3]: Not Active; EC50 [4]: Not Active
COc1cc(N2CCN(S(=O)(=O)c3ccc(OC)c(OC)c3)C(C(=O)NCc3ccc(OC(F)(F)F)cc3)C2)nc(OC)n1 (racemic)	1100	13	–
CCc1ccc(S(=O)(=O)N2CCN(c3cc(OC)nc(OC)n3)CC2C(=O)NCc2ccc(OC(F)(F)F)cc2)cc1 (racemic)	500	9.2	–
COc1cc(N2CCN(S(=O)(=O)C3CCCCC3)C(C(=O)NCc3ccc(OC(F)(F)F)cc3)C2)nc(OC)n1 (racemic)	–	–	EC50 [3]: Not Active; EC50 [4]: Not Active
CCc1ccc(S(=O)(=O)N2CCN(c3cc(OC)nc(OC)n3)CC2C(=O)NCc2ccccc2)cc1 (racemic)	8800	–	EC50 [4]: Not Active
CCc1ccc(S(=O)(=O)N2CCN(c3cc(OC)nc(OC)n3)CC2C(=O)NCc2ccc(OC)cc2OC)cc1 (racemic)	1200	12.4	–
COC(=O)c1ccc(N2CCN(S(=O)(=O)c3ccc(OC(F)(F)F)cc3)C(C(=O)NCc3ccc(OC(F)(F)F)cc3)C2)nn1 (racemic)	380	3.9	–
CNC(=O)c1cnc(N2CCN(S(=O)(=O)c3ccc(OC(F)(F)F)cc3)C(C(=O)NCc3ccc(OC(F)(F)F)cc3)C2)cn1 (racemic)	220	2.23	–
